Experimental data: publication PMC10321640, “The VIPR2-selective antagonist KS-133 changes macrophage polarization and exerts potent anti-tumor effects as a single agent and in combination with an anti-PD-1 antibody” (PLOS ONE, 2023)
Where a SMILES comes first, the peptide text is derived from it. Bridges are numbered along the chain shown (N, C = ends).

How the values were obtained:
[1] = test system: RAW264.7 murine macrophage-like cells; experiment: In vitro gene expression of M1-like and M2-like macrophage markers (real-time PCR); assay type: cell-based; settings: RAW264.7 in 20% CT26-CM/DMEM, 3 days
Experimental: The detailed method and DNA primer sequences were described previously. RAW264.7 murine macrophage-like cells and CT26.WT murine colorectal cancer cells (CRL-2638) were purchased from RIKEN BRC (Tsukuba, Japan) and American Type Cell Collection (Manassas, VA, USA), respectively. CT26 cells (4 × 10^6) were grown in T75 flask with 20 mL of RPMI medium containing 10% FBS for 3 days. The culture medium (CT26-CM) was collected and centrifuged at 400 g for 5 min. RAW264.7 cells (2.4 × 10^5) were incubated in 24-well plate in the presence or absence of KS-133 (KS-133 concentration = 1, 3, or 10 μM, DMSO concentration = 0.1%) with 20% CT26-CM/DMEM for 3 days. During the incubation, medium containing KS-133 was replaced every day. mRNA extraction was performed using ISOGEN (Nippon Gene, Tokyo, Japan) on day 3 after CT26-CM incubation, and cDNA was prepared. The gene expression of M1 markers (TNF-α, iNOS, CXCL10), M2 markers (Mrc-1, IL-1rn, CCL22), and β-actin was analyzed by real-time polymerase chain reaction (PCR) using a 7300 Fast Real-Time PCR System (Applied Biosystems, Thermo Fisher Scientific, MA, USA,) and Light Cycler Fast Start DNA Master kit (Applied Biosystems). The relative mRNA expression was determined using the 2^−ΔΔCt method. ΔΔCt was calculated using control group data.
It has been reported that when RAW264.7 cells are incubated in the presence of the culture supernatant of CT26 cells, M1-type macrophage marker mRNA expression is decreased, and that of M2-type macrophages is increased. Using this assay system, we evaluated whether KS-133 affect the mRNA expression of TNFα, iNOS, and CXCL10 as M1-type macrophage markers and Mrc-1, IL-1Rn, and CCL-22 as M2-type macrophage markers. […] Therefore, VIPR2 inhibition by KS-133 changes the macrophage polarity toward M1.
Fig 1 Variation of marker gene expression in M1- and M2-type macrophages in the presence of KS-133. Results are presented as the mean ± SEM (n = 3 independent experiments using separately treated cultures, *p < 0.05 vs. control by two-way ANOVA).

[2] = Water solubility of the peptides, with or without surfactant (appearance); assay type: physicochemical
Experimental: KS-133 and KS-133(P3S) (a substitution of proline at position three of KS-133 with serine) were synthesized at SCRUM Inc. (Tokyo, Japan) using Fmoc-based solid-phase peptide synthesis as previously reported. After reverse phase–high-performance liquid chromatography (RP–HPLC) purification, structural assignment was performed by matrix-assisted laser desorption ionization–time-of-flight mass spectrometry (MS). All analytical data of peptides in this report are presented in S1 Table. Cremophor EL® (CrEL) (09727–14) was purchased from Nacalai Tesque, Inc. (Kyoto, Japan). The nanoformulation of peptide using CrEL was done by basically according to the method as previously reported. First, KS-133 or KS-133(P3S) (20 mg) was dissolved in DMSO (100 μL), giving a concentration of 200 mg/mL. Next, CrEL (100 μL) was mixed with purified water (350 μL). The peptide solution was added dropwise to the stirring CrEL solution and mixed. Then, the peptide/CrEL solution made into a suspension by repeated vortex agitation and sonication at approximately 50°C. Purified water (450 μL) was added to the peptide/CrEL solution, and the same process was repeated. […]
Fig 3 Nanoformulation of peptides using CrEL and their characterization. […] The determined particle size of KS-133 NPs was approximately 15.34 nm, and that of KS-133(P3S) NPs was approximately 15.96 nm. […]

[3] = KS-133 10 μM, 0.1% DMSO, 2^−ΔΔCt, n = 3, p < 0.05 vs control

CC[C@H](C)[C@H](NC(=O)[C@H](CC(C)C)NC(=O)[C@@H]1CC(=O)NCCCC[C@@H]2NC(=O)[C@@H]3CCCN3C(=O)[C@H](CC(C)C)NC(=O)[C@H](Cc3ccc(O)cc3)NC(=O)[C@@H]3CCCN3C(=O)[C@@H]3CCCN3C(=O)[C@@H](NC(C)=O)CSSC[C@H](NC(=O)[C@H](CC(C)C)NC(=O)[C@H](Cc3ccc(O)cc3)NC2=O)C(=O)N1)C(N)=O [KS-133] (Ac-CPPYLPKYLCDLI-NH2; disulfide 1-10; lactam 7-11)
mRNA expression level of CXCL10 (M1-type macrophage marker) [1, 3]: significantly enhanced
mRNA expression level of iNOS (M1-type macrophage marker) [1, 3]: significantly enhanced
CCL22 expression (M2-type macrophage marker) [1]: no effect
IL-1Rn expression (M2-type macrophage marker) [1]: no effect
mRNA expression of Mrc-1 (M2-type macrophage marker) ([1]; n = 3, p < 0.05 vs control): significantly decreased
concentration that could be dissolved in DMSO(10%)/CrEL(10%) ([2]; Fig 3C, transparent solution immediately after preparation): ≥ 20000 µg/mL
solubility in aqueous solution / water solubility (in words) ([2]; without surfactant): poor solubility
